Reference: patent US20090239877A1, “NOVEL 1,2,4-TRIAZOLE DERIVATIVES AND PROCESS OF MANUFACTURING THEREOF” (AETERNA ZENTARIS GmbH, priority 2008, published 2009)

Columns and labels:
[1] = biological target: T1, human GHS-R 1a (Homo sapiens, UniProt Q92847); assay: GHS-R 1a receptor-ligand binding assay (membrane preparations from transfected LLC PK-1 cells); design: expressed in transfected cells; conditions: displacement of 125I-His9-ghrelin; plasma membranes of LLC PK-1 cells transiently transfected with human GHS-R 1a; mean of at least two independent experiments in triplicates
T1 sequence (Q92847 whole entry): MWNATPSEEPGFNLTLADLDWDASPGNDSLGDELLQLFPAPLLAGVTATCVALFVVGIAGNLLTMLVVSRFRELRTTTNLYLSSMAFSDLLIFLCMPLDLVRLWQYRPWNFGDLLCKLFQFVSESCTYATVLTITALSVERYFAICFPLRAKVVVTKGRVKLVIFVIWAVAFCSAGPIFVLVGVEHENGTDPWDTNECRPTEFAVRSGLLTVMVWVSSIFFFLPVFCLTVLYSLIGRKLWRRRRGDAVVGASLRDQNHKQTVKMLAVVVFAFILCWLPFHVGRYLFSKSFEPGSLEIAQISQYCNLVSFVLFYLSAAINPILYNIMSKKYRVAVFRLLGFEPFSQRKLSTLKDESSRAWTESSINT
How it was run: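 Membranes (10 μg protein) from LLC PK-1 cells transiently transfected with human GHS-R 1a cDNA were incubated 60 min at 25° C in 50 mM Tris pH 7.3 buffer with […] ^125I-His^9-ghrelin, with nonspecific binding defined by 10^−6 M ghrelin. Filter-bound radioactivity was gamma-counted, and IC50 was obtained by non-linear regression of competition curves.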

[2] = biological target: T1, human GHS-R 1a; assay: In vitro intracellular calcium release assay using human GHS-R 1a transfected CHO cells; format: cell-based; design: expressed in transfected cells; host or cells: CHO-K1 Chinese hamster ovary cells (ATCC No. CCL-61), transient transfection by electroporation; conditions: for activation at 1 µM: intracellular calcium release, compound at 10^-6 M, relative to basal level (0%) and 1 μM ghrelin (100%)
Procedure: The ability to properly activate the receptors is assessed for any compound of the invention by comparing the degree of activation (increase of intracellular calcium) of GHS-R 1a by the compound to be tested (at 10^−6 M concentration) to the degree of activation (increase of intracellular calcium) of GHS-R 1a by 10^−6 M ghrelin (100%) and to the basal level (0%). Such assessment can be readily performed by the skilled artisan due to his expert knowledge. The output is a percentage value for each compound to be tested. […]
III) In Vitro Intracellular Calcium Release Assay Using Human GHS-R 1a Transfected CHO Cells
The potential of the compounds of the invention to modulate GHS receptor activity was assessed by an in vitro intracellular Calcium release assay employing CHO cells that were transfected with human GHS-R 1a.
Release of intracellular calcium or inhibition thereof was measured using the fluorescent calcium indicator assay (FLIPR) and Fluo-4 AM.
CHO cells (CHO-KI Chinese Hamster Ovary cell line, ATCC No. CCL-61) were transiently transfected with human GHS-R 1a cDNA by electroporation and plated into 96-well black bottom plates (Corning 3603) (80,000 cells/well). Transient transfections were performed using the Easyject Optima Electroporator (Equibio), according to the manufacturer's instructions.
Transfected cells were grown in Dulbecco's modified Eagle's medium without phenol red, supplemented with 10% (v/v) non-essential amino acids, […] glutamine and streptomycin-penicillin (250 μg/ml-250 u/ml) (all purchased from Cambrex) at 37° C., 5% CO2 in a humidified atmosphere for 24 hours.
After incubation, transfected cells were washed with 150 μl Buffer A [Hanks' balanced salt solution (Sigma H-6648), 0.5% (v/v) BSA (Sigma A-7906), 20 mM CaCl2, 2.5 mM probenecid (pH 7.4, dissolved in 1 M NaOH) (Sigma P-8761)] and were then loaded with fluorescent calcium indicator Fluo-4 AM (10^−6 M) (Interchim UP72972) prepared in Buffer A, additionally containing 0.06% pluronic acid (Molecular probes P-6867) (a […] detergent which facilitates Fluo-4AM ester loading). (Loading: 100 μl per well of Buffer A containing 120 μl/ml Pluronic Acid and 1 μM Fluo-4AM was added to the cells).
After loading with Fluo-4 AM, transfected cells were incubated for 1 hour in the dark at 37° C.
Compounds to be tested were dissolved in Buffer A in triplicates at a concentration of 10^−6 M and distributed into another 96-well plate (Fisher Labosi A1210500).
Following incubation, excess Fluo-4AM was removed, 100 μl of Buffer A was added to each well at room temperature and immediately removed by aspiration. This was then repeated, before adding 50 μl Buffer A to each well.
Transfected cells were further incubated room temperature for 30 min to allow complete de-esterification of intracellular Fluo-4AM esters.
Subsequently, both plates, the black-bottom plate containing transfected cells and the microtiter plate containing the compounds to be tested, were then placed into a temperature-regulated (25° C.) FlexStation machine (benchtop scanning fluorometer Flex Station II, Molecular Devices, Sunnyvale, Calif., USA) for fluorescence output measurements.
Basal fluorescence output from the transfected cells was measured for 15 sec and then 50 μl of the compounds to be tested were automatically distributed into the wells containing the transfected cells. The fluorescence output was then recorded for a further 45 sec.
Excitation and emission wavelengths were 485 nm and 525 nm, respectively. Basal fluorescence intensity of Fluo-4AM-loaded transfected cells without compounds to be tested varied between 800-1200 arbitrary units, whereas maximal fluorescence output of dye-loaded transfected cells upon incubation with the compounds to be tested varied between 5000-7000 arbitrary units and was equivalent to that achieved by stimulation of dye-loaded transfected cells with 10^−6 M ghrelin. […]

[3] = biological target: T1, human GHS-R 1a; assay: as above; format: cell-based; design: expressed in transfected cells; host or cells: CHO-K1 Chinese hamster ovary cells (ATCC No. CCL-61), transient transfection by electroporation; conditions: antagonist dissociation constant, antagonist inhibition curves in the presence of 10^-7 M ghrelin, Cheng-Prusoff equation, Fluo-4 AM

Row | SMILES | IC50 [1] | activation at 1 µM [2] | Kb [3] | EC50 ([2]; agonists, dose-response curve of intracellular calcium release)
1 | COc1ccc(Cn2c(CCc3c[nH]c4ccccc34)nnc2[C@@H](Cc2c[nH]c3ccccc23)NC(=O)c2ccn[nH]2)cc1 [Compound 14, N-((R)-1-(5-(2-(1H-indol-3-yl)ethyl)-4-(4-methoxybenzyl)-4H-1,2,4-triazol-3-yl)-2-(1H-indol-3-yl)ethyl)-1H-pyrazole-5-carboxamide] | 89.8 nM | 15% | 12.8 nM | 
2 | COc1ccc(Cn2c(CCc3ccccc3)nnc2[C@@H](Cc2c[nH]c3ccccc23)NC(=O)c2ccnnc2)c(OC)c1 [Compound 7, N-((R)-1-(4-(2,4-dimethoxybenzyl)-5-phenethyl-4H-1,2,4-triazol-3-yl)-2-(1H-indol-3-yl)ethyl)pyridazine-4-carboxamide] |  | 3% | 57 nM | 
3 | COc1ccc(Cn2c(CCc3ccccc3)nnc2[C@@H](Cc2c[nH]c3ccccc23)NC(=O)c2ccn[nH]2)c(OC)c1 [Compound 8, N-((R)-1-(4-(2,4-dimethoxybenzyl)-5-phenethyl-4H-1,2,4-triazol-3-yl)-2-(1H-indol-3-yl)ethyl)-1H-pyrazole-5-carboxamide] | 350 nM | 0% | 64 nM | 
4 | COc1ccc(Cn2c(CCc3ccccc3)nnc2[C@@H](Cc2c[nH]c3ccccc23)NC(=O)C2CCOCC2)c(OC)c1 [Compound 12, N-((R)-1-(4-(2,4-dimethoxybenzyl)-5-phenethyl-4H-1,2,4-triazol-3-yl)-2-(1H-indol-3-yl)ethyl)-tetrahydro-2H-pyran-4-carboxamide] | 15.8 nM | 3% | 68 nM | 
5 | COc1ccc(Cn2c(CCc3c[nH]c4ccccc34)nnc2[C@H](Cc2c[nH]c3ccccc23)NC(=O)c2cnccn2)cc1 [Compound 29, N-((S)-1-(5-(2-(1H-indol-3-yl)ethyl)-4-(4-methoxybenzyl)-4H-1,2,4-triazol-3-yl)-2-(1H-indol-3-yl)ethyl)pyrazine-2-carboxamide] |  | 0% | 215 nM | 
6 | O=C(N[C@H](Cc1c[nH]c2ccccc12)c1nnc(Cc2ccccc2)n1Cc1ccc(Cl)c(Cl)c1)c1ccccn1 [Compound 36, N-((R)-1-(4-(3,4-dichlorobenzyl)-5-benzyl-4H-1,2,4-triazol-3-yl)-2-(1H-indol-3-yl)ethyl)picolinamide] | 70 nM | 20% | 215 nM | 
7 | O=C(N[C@H](Cc1c[nH]c2ccccc12)c1nnc(CCc2ccccc2)n1Cc1cccc2ccccc12)c1ccccn1 [Compound 16, N-((R)-2-(1H-indol-3-yl)-1-(4-((naphthalen-1-yl)methyl)-5-phenethyl-4H-1,2,4-triazol-3-yl)ethyl)picolinamide] | 125 nM |  | 79 nM | 

Now from value to compound:

Row | IC50 [1] | activation at 1 µM [2] | Kb [3] | EC50 ([2]; agonists, dose-response curve of intracellular calcium release) | SMILES
8 | 80 nM | 0% | 300 nM |  | O=C(N[C@H](Cc1c[nH]c2ccccc12)c1nnc(CCCc2c[nH]c3ccccc23)n1Cc1ccccc1)c1ccccn1 [Compound 21, N-((R)-1-(5-(3-(1H-indol-3-yl)propyl)-4-benzyl-4H-1,2,4-triazol-3-yl)-2-(1H-indol-3-yl)ethyl)picolinamide]
9 | 390 nM | 0% | 275 nM |  | O=C(N[C@H](Cc1c[nH]c2ccccc12)c1nnc(CCc2ccccc2)n1Cc1cccc2ccccc12)C1CCOCC1 [Compound 19, N-((R)-2-(1H-indol-3-yl)-1-(4-((naphthalen-1-yl)methyl)-5-phenethyl-4H-1,2,4-triazol-3-yl)ethyl)-tetrahydro-2H-pyran-4-carboxamide]
10 | 40 nM | 150% |  | 1.6 nM | O=C(N[C@H](Cc1c[nH]c2ccccc12)c1nnc(CCCc2c[nH]c3ccccc23)n1Cc1ccccc1)C1CCNCC1 [Compound 22, N-((R)-1-(5-(3-(1H-indol-3-yl)propyl)-4-benzyl-4H-1,2,4-triazol-3-yl)-2-(1H-indol-3-yl)ethyl)piperidine-4-carboxamide]
